Measurements reported in article PMC10578352, “Identification of a Protein Arginine Methyltransferase 7 (PRMT7)/Protein Arginine Methyltransferase 9 (PRMT9) Inhibitor” (Journal of Medicinal Chemistry, 2023).
pIC50: −log10 of the molar value.

Tests used:
ASH1L/KMT2H = molecular target: T1, ASH1L/KMT2H (Homo sapiens, UniProt Q9NR48); assay: HotSpot KMT activity assay, ASH1L; format: biochemical
T1 construct: the human recombinant ASH1L (residues 2046–2330, with an N-terminal His-tag); His (N); purchased Reaction Biology Corporation
Description: ; MW = 35.4 kDa; Genbank Accession # NM_018489), or the human recombinant EZH2-containing five-member polycomb repressive complex 2 (including EZH2 residues 2–746, AEBP2 2–517, EED 2–441, RbAp48 2–425, SUZ12 2–739; all full-length; with N-terminal Flag-tag on EED and N-terminal His-tag on all others; MW = 333.8 kDa; Genbank Accession # NM_001203247, NM_001114176, NM_003797, NM_005610, NM_015355), or the human recombinant G9a (residues 913–1193, C-terminus; with an N-terminal His-tag; MW = 34.6 kDa; Genbank Accession # NM_006709.3), or the human recombinant MLL1 complex (including MLL1 residues 3745–3969, C-terminus, WDR5 22–334, C-terminus, RbBP5 1–538, C-terminus, ASH2L 2–534, C-terminus, DPY-30 1–99, C-terminus; N-terminal His-tag on all subunits; MW = 212.0 kDa; Genbank Accession # NM_005933, NM_017588, NM_005057, NM_001105214, NM_0325742), or the human recombinant SET7/9 (residues 2–366, C-terminus; with a N-terminal GST-tag and a C-terminal His-tag; MW = 68.5 kDa; Genbank Accession # NM_030648), or the human recombinant SMYD3 (residues 2–428, C-terminus; C-terminal His-tag; MW = 50.1 kDa; Genbank Accession # NM_001167740), or the human recombinant SUV39H2 (residues 46–410, C-terminus; N-terminal fusion protein with a C-terminal His-tag; MW = 98.8 kDa; GenBank Accession No. NM_001193424), or the human recombinant DOT1L (residues 1–416; N-terminal GST-tag; MW = 80.0 kDa; Genbank Accession # NM_032482) was added to a solution of the proper substrate (oligo nucleosomes for ASH1L, MLL1 complex, and DOT1L, final concentration 0.05 mg/mL; core histone for EZH2 complex and SET7/9, final concentration 0.05 mg/mL; histone H3 for SUV39H2, final concentration 5 μM; histone H3 1–21 for G9a, final concentration 2.5 μM) in freshly prepared reaction buffer (50 mM Tris-HCl (pH 8.5), 5 mM MgCl2, 50 mM NaCl, 1 mM DTT, 1 mM PMSF, 1% DMSO) and gently mixed. […] After incubation for 60 min at 30 °C, the reaction mixture was delivered to filter paper for detection (as assessed by scintillation). […] Values obtained for each compound are mean ± SD determined for two separate experiments.

GST-HsPRMT9 = molecular target: T2, GST-HsPRMT9 (Homo sapiens, UniProt Q6P2P2); assay: Radioisotope-based assay (SDS-PAGE, fluorography, densitometry), HsPRMT9; format: biochemical
T2 construct: made in house; host or cells: E. coli
T2 sequence (Q6P2P2 1-845): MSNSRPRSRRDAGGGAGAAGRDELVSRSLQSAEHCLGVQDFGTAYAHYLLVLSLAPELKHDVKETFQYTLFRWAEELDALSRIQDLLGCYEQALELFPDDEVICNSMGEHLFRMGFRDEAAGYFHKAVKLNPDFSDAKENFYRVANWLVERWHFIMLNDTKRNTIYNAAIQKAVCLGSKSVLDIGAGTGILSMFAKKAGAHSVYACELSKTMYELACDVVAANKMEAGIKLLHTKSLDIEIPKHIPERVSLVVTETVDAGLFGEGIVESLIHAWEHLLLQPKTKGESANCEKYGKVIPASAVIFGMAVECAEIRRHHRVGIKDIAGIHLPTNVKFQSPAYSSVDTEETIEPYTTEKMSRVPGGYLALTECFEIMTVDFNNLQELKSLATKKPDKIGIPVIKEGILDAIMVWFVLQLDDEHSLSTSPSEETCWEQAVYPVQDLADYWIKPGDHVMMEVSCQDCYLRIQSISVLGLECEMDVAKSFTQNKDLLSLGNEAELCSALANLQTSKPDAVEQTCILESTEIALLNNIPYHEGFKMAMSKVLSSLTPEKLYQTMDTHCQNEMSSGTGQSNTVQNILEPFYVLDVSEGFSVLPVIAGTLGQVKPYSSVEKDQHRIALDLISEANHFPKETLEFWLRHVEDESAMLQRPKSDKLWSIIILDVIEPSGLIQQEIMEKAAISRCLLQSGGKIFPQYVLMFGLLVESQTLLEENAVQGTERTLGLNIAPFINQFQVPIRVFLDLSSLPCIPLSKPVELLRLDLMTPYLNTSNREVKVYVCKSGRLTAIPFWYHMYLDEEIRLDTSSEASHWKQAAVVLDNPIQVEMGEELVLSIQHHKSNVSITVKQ
Experimental: (§1) Based on these outcomes, we resolved to explore the effect on the capability to inhibit PRMT9 enzymatic activity of further reduction of the distance between the pharmacophoric moieties. […] After the experiment was repeated with 100, 250, and 500 μM concentrations of each inhibitor, half inhibition was observed only at a concentration of roughly 250 μM (Figure 4d).
(§2) […]. The experiments were performed as reported in the Experimental procedures section. GST-HsPRMT9 (a) and GST-HsPRMT7 (b) were incubated with human GST-SF3B2 (401–550) peptide or recombinant HsH2B, respectively (1 μg of enzyme, 5 μg of substrate), 0.14 μM [^3H]SAM, and the indicated concentrations of tested compounds at the corresponding optimal reaction temperature (37 °C for HsPRMT9, 15 °C for HsPRMT7). C. elegans GST-tagged enzymes PRMT9 (c) and PRMT7 (d) were incubated with GST-CeSFTB-2 (99–248) fragment or recombinant HsH2B, respectively (1 μg of enzyme, 5 μg of substrate), 0.14 μM [^3H]SAM, and the indicated concentrations of tested compounds at the corresponding optimal reaction temperature (25 °C for CePRMT9, 15 °C for CePRMT7). After SDS-PAGE, the gels were treated as previously described[48] and densitometry analysis was done using ImageJ software, and data was plotted as normalized activity to the no inhibitor controls.
(§3) Human PRMT9, C. elegans PRMT9, human PRMT7, and C. elegans PRMT7 plasmids were sequenced, expressed in E. coli as GST-fusion proteins, and purified as previously described.[48] Substrates were also sequenced and purified as described [human GST-SF3B2 (401–550);[13]C. elegans SFTB-2;[48] human histone H2B (New England Biolabs, M2505S)]. Xenopus laevis histone H2B was expressed in E. coli and purified similarly to what was previously reported by Luger et al.[72]
(§4) Reactions consisting of approximately 1 μg of enzyme (human or C. elegans GST-tagged enzymes PRMT9 and PRMT7), reacted with approximately 5 μg of substrate [for human PRMT9, human GST-SF3B2 401–550 fragment; C. elegans PRMT9 with C. elegans GST-SFTB-2 (99–248) fragment, or recombinant human histone H2B from New England Biolabs (M2505S)], were incubated for the indicated time in reaction buffer {50 mM potassium HEPES buffer, 10 mM NaCl, 1 mM dithiothreitol (DTT), pH 8.0 with 0.7 μM S-adenosyl-L-[methyl-^3H]methionine (^3H-AdoMet, PerkinElmer Life Sciences, 82.7 Ci/mmol, 0.55 mCi/mL in 10 mM H2SO4/EtOH [9:1 (v/v)])} in a final reaction volume of 60 μL. Each reaction was incubated at the corresponding optimal reaction temperature (37 °C for human PRMT9, 25 °C for C. elegans PRMT9, and 15 °C for C. elegans and human PRMT7 enzymes. MTA was dissolved in water, and a wavelength scan was taken to determine the final concentration using the extinction coefficient. The final concentrations used are indicated in the figure legends. […]. EML734, EML736, and EML709 were also dissolved in DMSO, and further dilutions were made in DMSO for the working stocks. For controls, no inhibitor reactions were created by the addition of the respective solvent (water for MTA and DMSO for EPZ015666 and EML inhibitors).
(§5) After the reaction incubations with the various concentrations of inhibitors, the reactions were quenched by adding 0.2 volume of 5× SDS sample loading buffer, and subsequently, the reactions were run on a 12.6% polyacrylamide Tris gel. To collect the radioactive signal, the gels were then treated in the same way as previously described.[48]
(§6) After various exposures were collected to ensure linear detection, densitometry analysis was done using ImageJ software, and data were plotted as normalized activity to the no inhibitor controls.

GST-HsPRMT7 = molecular target: T3, GST-HsPRMT7 (Homo sapiens, UniProt Q9NVM4); assay: Radioisotope-based assay (SDS-PAGE, fluorography, densitometry), HsPRMT7; format: biochemical; conditions: substrate HsH2B, 15 °C, read-out: % HsPRMT7 residual activity
T3 construct: made in house; host or cells: E. coli
T3 sequence (Q9NVM4 1-692): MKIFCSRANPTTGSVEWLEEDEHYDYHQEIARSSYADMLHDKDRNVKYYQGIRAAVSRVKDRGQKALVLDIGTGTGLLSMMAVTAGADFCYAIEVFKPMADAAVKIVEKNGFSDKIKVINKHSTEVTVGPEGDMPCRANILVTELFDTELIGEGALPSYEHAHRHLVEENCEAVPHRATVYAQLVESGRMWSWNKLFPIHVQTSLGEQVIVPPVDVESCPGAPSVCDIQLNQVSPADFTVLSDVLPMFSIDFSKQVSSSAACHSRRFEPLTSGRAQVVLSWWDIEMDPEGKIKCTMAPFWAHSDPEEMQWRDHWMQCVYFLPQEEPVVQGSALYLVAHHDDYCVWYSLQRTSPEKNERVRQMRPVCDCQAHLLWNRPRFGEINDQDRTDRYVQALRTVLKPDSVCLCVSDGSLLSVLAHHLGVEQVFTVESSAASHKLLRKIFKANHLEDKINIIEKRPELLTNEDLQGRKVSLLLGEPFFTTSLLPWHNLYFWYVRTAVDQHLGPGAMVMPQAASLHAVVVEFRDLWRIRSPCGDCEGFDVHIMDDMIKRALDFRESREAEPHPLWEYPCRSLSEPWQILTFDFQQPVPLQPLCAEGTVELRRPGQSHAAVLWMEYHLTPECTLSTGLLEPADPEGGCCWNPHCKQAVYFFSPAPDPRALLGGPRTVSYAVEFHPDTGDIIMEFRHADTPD
Experimental: as §1, §2, §3, §4
as §5, with “described.[48] […]” for “described.[48]”

CePRMT9 = assay: Radioisotope-based assay (SDS-PAGE, fluorography, densitometry), CePRMT9; format: biochemical, Caenorhabditis elegans; conditions: substrate GST-CeSFTB-2 (99–248), 25 °C
Experimental: as §1, §2, §3, §4, §5, §6

CePRMT7 = molecular target: T4, CePRMT7 (Caenorhabditis elegans, UniProt Q9XW42); assay: Radioisotope-based assay (SDS-PAGE, fluorography, densitometry), CePRMT7; format: biochemical; conditions: 100 uM; substrate HsH2B, 15 °C; read-out: % CePRMT7 residual activity
T4 construct: made in house; host or cells: E. coli
T4 sequence (Q9XW42 whole entry): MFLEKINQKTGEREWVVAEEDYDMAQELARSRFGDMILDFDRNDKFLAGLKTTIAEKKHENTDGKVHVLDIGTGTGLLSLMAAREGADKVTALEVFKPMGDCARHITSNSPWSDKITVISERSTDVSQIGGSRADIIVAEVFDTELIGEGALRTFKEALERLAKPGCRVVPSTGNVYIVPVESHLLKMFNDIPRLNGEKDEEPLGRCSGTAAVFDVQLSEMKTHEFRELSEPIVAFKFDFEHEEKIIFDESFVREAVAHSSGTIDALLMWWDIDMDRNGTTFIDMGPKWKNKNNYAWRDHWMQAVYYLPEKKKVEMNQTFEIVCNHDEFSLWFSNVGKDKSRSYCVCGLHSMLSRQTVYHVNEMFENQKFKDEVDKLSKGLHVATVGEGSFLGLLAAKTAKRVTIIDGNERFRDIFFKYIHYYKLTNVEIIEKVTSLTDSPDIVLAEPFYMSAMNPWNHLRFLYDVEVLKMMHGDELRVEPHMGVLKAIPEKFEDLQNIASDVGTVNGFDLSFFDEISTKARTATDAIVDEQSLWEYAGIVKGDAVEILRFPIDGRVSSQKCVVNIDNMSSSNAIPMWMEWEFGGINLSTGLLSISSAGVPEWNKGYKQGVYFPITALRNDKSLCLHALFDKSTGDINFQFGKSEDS
Experimental: as §1, §2, §3, §4, §5, §6

[1] = substrate GST-SF3B2 (401–550), 37 °C, read-out: % HsPRMT9 residual activity

Compound | pIC50 (ASH1L/KMT2H) | inhibition of HsPRMT9 (in words) (GST-HsPRMT9; 100 μM) | remaining activity at 100 µM (GST-HsPRMT9; [1]) [%] | remaining activity at 100 µM (GST-HsPRMT7) [%] | % CePRMT9 residual activity (CePRMT9; 100 uM) [%] | remaining activity at 100 µM (CePRMT7) [%] | remaining activity at 250 µM (GST-HsPRMT9; 250 uM, substrate GST-SF3B2 (401–550), 37 °C, read-out: % HsPRMT9 residual activity) [%] | remaining activity at 500 µM (GST-HsPRMT9; 500 uM, substrate GST-SF3B2 (401–550), 37 °C, read-out: % HsPRMT9 residual activity) [%] | inhibition of HsPRMT9 (in words) (GST-HsPRMT9; up to 500 μM) | % CePRMT9 residual activity (CePRMT9; 250 uM) [%] | % CePRMT9 residual activity (CePRMT9; 500 uM) [%]
CN1C(=O)[C@@]23C[C@]4([C@]56C[C@@]78SS[C@@](CO)(C(=O)N7[C@H]5Nc5ccccc56)N(C)C8=O)c5ccccc5N[C@@H]4N2C(=O)[C@]1(CO)SS3 [chaetocin, reference compound] | 7.60 |  |  |  |  |  |  |  |  |  | 
CSC[C@H]1O[C@@H](n2cnc3c(N)ncnc32)[C@H](O)[C@@H]1O [MTA, 5′-Deoxy-5′-(methylthio)adenosine, reference compound] |  | good inhibition only at 100 μM | 26 | 46.8 | 23.57 | 130 |  |  |  |  | 
O=C(NC[C@H](O)CN1CCc2ccccc2C1)c1cc(NC2COC2)ncn1 [EPZ015666, reference compound] |  |  | 99.8 | 120 | 139.23 | 131 | 105 | 98 | inactive | 132.20 | 105.26
